System: PC12 cells
Assay: Membrane potential (CytoLite luminescence) in Aβ-treated PC12 cells
Format: cell-based, rat
Procedure: PC12 cells (rat pheochromocytoma neurons) from ATCC (Manassas, Va.) were cultured at 37° C. and 5% CO2 in RPMI 1640 medium devoid of glutamine and supplemented with 10% fetal bovine serum and 5% horse serum. Yao Z, Drieu K and Papadopoulos V., The Gingko biloba extract EGb 761 rescues PC12 neuronal cells from β-amyloid-induced cell death by inhibiting the formation of (3-amyloid-derived diffusible neurotoxic ligands, Brain Res, 889, 181-190 (2001). Cells were seeded in 96-well plates (8×10^4 cells/well). After an overnight period of incubation, increasing concentrations of aggregated Aβ (0.1, 1 and 10 μM) were added to the cells in the presence or absence of the indicated concentrations of the SP compounds to be tested. After 72-hours incubation time various parameters, markers of cell viability, were determined. Mouse MA-10 tumor Leydig cells were maintained at 37° C. in DMEM/Ham's F12 (Biofluids, Rockville, Md.) medium supplemented with 5% heat-inactivated fetal calf serum and 2.5% horse serum in 5% CO2. Cells were plated on 96-well plates at the density of 2.5×10^4 cells/well for overnight. The cells were stimulated with the indicated concentrations of the various SP compounds in 0.2 ml/well serum-free medium for 2 hours. The culture medium was collected and tested for progesterone production by radioimmunoassay.
Cells viability was also assessed using the luminescence-based kit CytoLite™ (Packard BioScience Co.) according to the recommendations of the manufacturer. Briefly, cells were cultured and treated in 96-well plates and after 72-hours incubation time, 25 μl of Activator solution was added to the cells followed by 150 μl of Amplifier solution. Luminescence was measured on a TopCount NXT™ counter (Packard BioSciences Co.) following a 5 minute precount delay.

Question: Which results are given for `CC(C)CC[C@@H](O)[C@@H](C)[C@H]1CC[C@H]2[C@@H]3CC=C4C[C@@H](O)CC[C@]4(C)[C@H]3CC[C@]12C` [SP222, 22R-hydroxycholesterol]?
Answer: protection against 0.1 μM Aβ, membrane potential luminescence (0.1 μM Aβ): protected; protection against the two highest concentrations of Aβ, membrane potential luminescence (1.0 and 10.0 μM Aβ): failed to do so
